# In patent EP4782453A1 (Beyang Therapeutics Co., Ltd., priority 2023, dated 2025):
# Biological target: T1, Menin-MLL (Homo sapiens, UniProt O00255)
# T1 construct: His-Menin (M1-L615 end); purchased BIORTUS BP9210
# T1 sequence (O00255 1-615 isoform O00255-1): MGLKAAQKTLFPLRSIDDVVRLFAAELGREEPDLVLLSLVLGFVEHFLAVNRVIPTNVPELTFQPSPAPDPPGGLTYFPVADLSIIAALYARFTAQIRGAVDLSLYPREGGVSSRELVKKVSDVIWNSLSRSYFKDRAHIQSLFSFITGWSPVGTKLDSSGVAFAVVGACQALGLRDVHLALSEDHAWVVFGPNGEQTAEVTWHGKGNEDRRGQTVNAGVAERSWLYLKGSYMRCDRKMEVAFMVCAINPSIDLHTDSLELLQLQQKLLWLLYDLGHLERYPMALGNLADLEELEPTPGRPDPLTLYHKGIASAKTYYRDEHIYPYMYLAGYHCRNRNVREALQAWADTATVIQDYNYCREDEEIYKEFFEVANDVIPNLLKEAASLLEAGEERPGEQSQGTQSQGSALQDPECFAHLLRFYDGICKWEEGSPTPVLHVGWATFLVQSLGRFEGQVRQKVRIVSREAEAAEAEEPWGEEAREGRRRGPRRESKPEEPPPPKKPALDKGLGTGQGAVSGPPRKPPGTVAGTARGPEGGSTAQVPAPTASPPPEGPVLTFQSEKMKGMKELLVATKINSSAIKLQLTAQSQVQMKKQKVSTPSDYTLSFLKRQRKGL
# Experiment: Inhibitory activity against Menin-MLL binding (fluorescence polarization)
# Conditions: Menin-MLL IC50, fluorescence polarization; 150 nM His-Menin, 15 nM FITC-MLL; 25°C for 60 min
# How it was run: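 Fluorescence polarization competition: compound and 150 nM His-tagged menin (residues M1-L615) sit 15 min at 25 °C in pH 7.5 HEPES buffer with NaCl, DTT and BSA; 15 nM FITC-labelled MLL peptide then binds for 60 min. IC50 fitted sigmoidally from mP values, duplicate wells.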
row,Structure (SMILES),IC50 [µM]
1,CCN(C(=O)c1cc(F)ccc1-c1cc(N2CCN(C(=O)[C@@H]3CCCCN3)CC2)cn2c(C)ncc12)C(C)C [Example 81],0.188
2,Cc1nc(F)c2c(-c3ccc(F)cc3C(=O)N3CCOCC3C)cc(C3CN(C(C)C4CCN(C(=O)C5CC5F)CC4)C3)cn12 (stereo not drawn) [Example 301],0.009
3,"CCS(=O)(=O)N[C@H]1CC[C@H](CN2CC(c3cc(-c4ccc(F)cc4C(=O)N(CC(F)F)C(C)C)c4cnn(C)c4c3)C2)CC1 [Example 153, N-(2,2-difluoroethyl)-5-fluoro-2-[1-methyl-6-(1-{[(1r,4r)-4-ethanesulfonamidocyclohexyl]methyl}-azacyclobutan-3-yl)-1H-indazol-4-yl]-N-(isopropyl)benzamide]",0.031
4,Cc1nc(F)c2c(-c3ccc(F)cc3C(=O)N3CCOC[C@H]3C)cc(C3CN([C@@H](C)C4CCN(C(=O)[C@@H]5C[C@@H]5F)CC4)C3)cn12 [Example 303],0.005
5,"COCCN(C(=O)c1cc(F)ccc1-c1cc(C2CN([C@@H](CCCN3C[C@H]4C[C@@H]3CO4)C(C)C)C2)cn2c(C)ncc12)C(C)C [Example 467-2, 5-fluoro-N-(2-methoxyethyl)-2-(3-methyl-6-{1-[(3S)-2-methyl-6-[(1R,4R)-2-oxa-5-azadicyclo[2.2.1]heptan-5-yl]hexan-3-yl]azacyclobutan-3-yl}imidazo[1,5-a]pyridin-8-yl)-N-(isopropyl)benzamide]",0.054

# Same assay, conditions: fluorescence polarization; 150 nM His-Menin, 15 nM FITC-MLL; 25°C for 60 min; read-out: Menin-MLL IC50
row,Structure (SMILES),IC50 [µM]
1,CCN(C(=O)c1cc(F)ccc1-c1nc(C2CN([C@H](CCCN3CCN(CCC#N)CC3)C(C)C)C2)cn2c(C)ncc12)C(C)C [Example 492],0.27
2,"CC(=O)N1CCC([C@@H](C(C)C)N2CC(c3cc(-c4ccc(F)cc4C(=O)N4CCOC[C@H]4C)c4c(F)nc(C)n4c3)C2)CC1 [Example 357-2, 1-{4-[(1R)-1-[3-(1-fluoro-8-{4-fluoro-2-[(3R)-3-methylmorpholin-4-carbonyl]phenyl}-3-methylimidazo[1,5-a]pyridin-6-yl)azacyclobutan-1-yl]-2-methylpropyl]piperidin-1-yl}ethan-1-one]",0.022
3,CC(=O)N1CCN(CCC[C@H](C(C)C)N2CC(c3cc(-c4ccc(F)cc4C(=O)N4CCOC[C@H]4C)c4c(F)nc(C)n4c3)C2)[C@H](C)C1 [Example 328],0.016
4,Cc1nc(F)c2c(-c3ccc(F)cc3C(=O)N3CCOC[C@H]3C)cc(C3CN([C@@H](C)C4CCN(C(=O)C5CC5)CC4)C3)cn12 [Example 299],0.015
5,Cc1nc(F)c2c(-c3ccc(F)cc3C(=O)N(CC(F)F)C(C)C)cc(C3CN(C(=O)[C@@H]4C[C@@H](C)CCN4)C3)cn12 [Example 155],0.023
6,CCS(=O)(=O)N[C@H]1CC[C@H](CN2CC(c3cc(-c4ccc(F)cc4C(=O)N4CCOC[C@@H]4C)c4cnc(C)n4c3)C2)CC1 [Example 135],0.102
7,Cc1nc(F)c2c(-c3ccc(F)cc3C(=O)N3CCOCC3C)cc(C3CN(C(C)C4CCN(C(=O)CC#N)CC4)C3)cn12 (stereo not drawn) [Example 263-1],0.074

# Further lines, results first:
row,IC50 [µM],Structure (SMILES)
1,0.248,"CC(C)N(CC(F)F)C(=O)c1cc(F)ccc1-c1cc([C@H]2CCN(CCN3CCC(NC(=O)OC(C)(C)C)CC3)C2)cc2c1cnn2C [Example 166-2, N-(1-{2-[(3R)-3-(4-{2-[(2,2-difluoroethyl)(isopropyl)aminoformyl]-4-fluorophenyl}-1-methyl-1H-indazol-6-yl)pyrrolidin-1-yl]ethyl}piperidin-4-yl)tert-butyl carbamate]"
2,0.0041,CCN(C(=O)c1cc(F)ccc1-c1cc(C2CN([C@H](CCCN3CCNC(=O)C3)C(C)C)C2)cn2c(C)ncc12)C(C)C [Example 494]
3,0.11,"CCN(C(=O)c1cc(F)ccc1-c1cc(C2CN([C@@H](CCCN3CCC(OC)CC3)C(C)C)C2)cc2c1cnn2C)C(C)C [Example 399-1, N-ethyl-5-fluoro-2-(6-{1-[(3S)-6-(4-methoxypiperidin-1-yl)-2-methylhexan-3-yl]azacyclobutan-3-yl}-1-methyl-1H-indazol-4-yl)-N-(isopropyl)benzamide]"
4,0.0032,"CCN1CCN(CCC[C@H](C(C)C)N2CC(c3cc(-c4ccc(F)cc4C(=O)N(CC)C(C)C)c4cnn(C)c4c3)C2)CC1 [Example 394-2, N-ethyl-2-(6-{1-[(3R)-6-(4-ethylpiperazin-1-yl)-2-methylhexan-3-yl]azacyclobutan-3-yl}-1-methyl-1H-indazol-4-yl)-5-fluoro-N-(isopropyl)benzamide]"
5,0.011,"CCN(C(=O)c1cc(F)ccc1-c1cc(C2CN(C(CC[C@@H]3COCCN3CCO)C(C)C)C2)cn2c(C)ncc12)C(C)C (stereo partly drawn) [Example 469, N-ethyl-5-fluoro-2-[6-(1-{1-[(3R)-4-(2-hydroxyethyl)morpholin-3-yl]-4-methylpentan-3-yl}azacyclobutan-3-yl)-3-methylimidazo[1,5-a]pyridin-8-yl]-N-(isopropyl)benzamide]"
6,0.083,"CCN(C(=O)c1cc(F)ccc1-c1cc(N2CCN(C(=O)[C@H]3N[C@@H]4CC[C@H]3C4)CC2)cn2cncc12)C(C)C [Compound 40, 2-(6-{4-[(1R,3S,4S)-2-azabicyclo[2.2.1]heptan-3-carbonyl]piperazin-1-yl}imidazo[1,5-a]pyridin-8-yl)-N-ethyl-5-fluoro-N-(isopropyl)benzamide]"
7,0.105,"CCN(C(=O)c1cc(F)ccc1-c1cc(C2CCN(C[C@]3(O)CC[C@@H](NC(=O)OC(C)(C)C)CC3)C2)cc2c1cnn2C)C(C)C (stereo partly drawn) [Compound 54, N-[(1s,4s)-4-{[3-(4-{2-[ethyl(isopropyl)aminoformyl]-4-fluorophenyl}-1-methyl-1H-indazol-6-yl)pyrrolidin-1-yl]methyl}-4-hydroxylcyclohexyl]tert-butyl carbamate]"
8,0.0016,CCN(C(=O)c1cc(F)ccc1-c1cc(C2CN([C@H](CCCN3CCN[C@H](CF)C3)C(C)C)C2)cn2c(C)ncc12)C(C)C [Example 501]
9,0.062,CCS(=O)(=O)N[C@H]1CC[C@H](CCN2CC(c3cc(-c4ccc(F)cc4C(=O)N4CCOC[C@H]4C)c4cnn(C)c4c3)C2)CC1 [Example 160]
10,0.051,C=C1CN[C@H](C(=O)N2CCC(c3cc(-c4ccc(F)cc4C(=O)N(CC(F)F)C(C)C)c4cnc(C)n4c3)CC2)C1 [Example 144]
11,0.011,CCN(C(=O)c1cc(F)ccc1-c1cc(C2CN([C@H](C)C3CCN(C(C)=O)CC3)C2)cn2c(C)nc(F)c12)C(C)C [Example 288-1]
12,0.0042,CCN(C(=O)c1cc(F)ccc1-c1cc(C2CN([C@H](CCCN3CCN(S(C)(=O)=O)CC3)C(C)C)C2)cn2c(C)ncc12)C(C)C [Example 397]
13,0.0063,CCN1CCN(C[C@H](C(C)C)N2CC(c3cc(-c4ccc(F)cc4C(=O)N(CC)C(C)C)c4cnn(C)c4c3)C2)CC1 [Example 418]
14,0.0465,CCN(C(=O)c1cc(F)ccc1-c1cc(N2CCN(C(=O)[C@@H]3CCCN3)CC2)cn2c(C)ncc12)C(C)C [Example 92]

# Same assay, conditions: read-out: Menin-MLL IC50; fluorescence polarization; 150 nM His-Menin, 15 nM FITC-MLL; 25°C for 60 min
row,Structure (SMILES),IC50 [µM]
1,"CCS(=O)(=O)N[C@H]1CC[C@@H](CN2CC(c3cc(-c4ccc(F)cc4C(=O)N4[C@H](C)COC[C@H]4C)c4c(F)nc(C)n4c3)C2)CC1 [Example 198, N-[(1s,4s)-4-{[3-(8-{2-[(3R,5R)-3,5-dimethylmorpholin-4-carbonyl]-4-fluorophenyl}-1-fluoro-3-methylimidazo[1,5-a]pyridin-6-yl)azacyclobutan-1-yl]methyl}cyclohexyl]ethan-1-sulfonamide]",0.004
